According to paper PMC2229530 (The Journal of General Physiology, 2002):

How the values were obtained:
sodium pump [1] = target: sodium pump (Homo sapiens, UniProt P05023); type: cell-based; conditions: for Slope of replot of A versus inhibitor concentration (unprotonated pump) / Slope of replot of B versus inhibitor concentration (protonated pump): 0.3 mM rubidium; for Slope of replot of A versus inhibitor concentration (unprotonated pump): Fig. 4a; for Slope of replot of B versus inhibitor concentration (protonated pump): Fig. 4b
sodium pump [2] = target: sodium pump (Rattus norvegicus, UniProt P06685); type: cell-based
sodium pump (Rattus norvegicus, UniProt P06685), sequence (Q63377 whole entry, other chains not shown): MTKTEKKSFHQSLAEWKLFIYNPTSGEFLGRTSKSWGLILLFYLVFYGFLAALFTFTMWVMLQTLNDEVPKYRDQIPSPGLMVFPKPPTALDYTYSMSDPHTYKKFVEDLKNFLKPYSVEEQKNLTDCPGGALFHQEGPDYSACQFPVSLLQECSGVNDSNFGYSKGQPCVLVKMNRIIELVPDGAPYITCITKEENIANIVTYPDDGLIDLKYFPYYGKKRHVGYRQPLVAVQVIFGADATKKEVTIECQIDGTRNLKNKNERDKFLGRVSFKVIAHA

CC[N+](C)(C)Cc1ccccc1Br [bretylium]
Slope of replot of A versus inhibitor concentration (unprotonated pump) (sodium pump [1]; human red blood cells): 0.392 ± 0.078 | Slope of replot of B versus inhibitor concentration (protonated pump) (sodium pump [1]; human red blood cells): 0.282 ± 0.019

N=C(N)N.O=[N+]([O-])O [guanidinium, Guanidium (guanidine) nitrate]
Slope of replot of A versus inhibitor concentration (unprotonated pump) (sodium pump [1]; human red blood cells): 0.175 ± 0.014 | Slope of replot of B versus inhibitor concentration (protonated pump) (sodium pump [1]; human red blood cells): 0.016 ± 0.001

C[C@@H]1O[C@@H](O[C@H]2C[C@@H](O)[C@]3(CO)[C@H]4[C@H](O)C[C@]5(C)[C@@H](C6=CC(=O)OC6)CC[C@]5(O)[C@@H]4CC[C@]3(O)C2)[C@H](O)[C@H](O)[C@H]1O [ouabain]
Fold decrease by protons of the kinetic constant / Ki (sodium pump [2]; rat red cells): 2.2 fold | Fold increase of the kinetic constant for protons caused by the ligand (sodium pump [2]; rat red cells): 2.2 fold

[H+] [protons]
Kd (sodium pump [2]; read-out: KH, proton binding to the pump in the absence of rubidium, rat pump, unloaded): 2.11 nM

[Na+] [sodium]
Slope of replot of A versus inhibitor concentration (unprotonated pump) (sodium pump [1]; human red blood cells): 0.271 ± 0.037 | Slope of replot of B versus inhibitor concentration (protonated pump) (sodium pump [1]; human red blood cells): 0.040 ± 0.006 | Fold increase by protons of the kinetic constant (sodium pump [2]; rat red cells): 7.1 fold

[Rb] [rubidium]
Slope of replot of A versus 1/[Rb] (sodium pump [1]; human red blood cells, A normalized to y intercept 1, Fig. 2b): 1.32 ± 0.07 | Slope of replot of B versus 1/[Rb] (sodium pump [1]; human red blood cells, Fig. 2b): 0.0387 ± 0.0074 | KRb, kinetic constant for rubidium binding to the unprotonated pump (sodium pump [1]; human red cells, from replot of A vs 1/Rb, 37°C): 1.32 ± 0.07 mM | LRb, kinetic constant for rubidium binding to the protonated pump (sodium pump [1]; human red cells, from replot of B vs 1/Rb, 37°C): 0.0387 ± 0.0074 mM | Slope of replot of A versus 1/[Rb] (sodium pump [2]; rat red blood cells, A normalized to y intercept 1, Fig. 2a): 0.868 ± 0.101 | Slope of replot of B versus 1/[Rb] (sodium pump [2]; rat red blood cells, Fig. 2a): 0.066 ± 0.0059 | Fold decrease by protons of the kinetic constant / Ki (sodium pump [2]; rat red cells): ~13 fold | KRb, kinetic constant for rubidium binding to the unprotonated pump (sodium pump [2]; rat red cells, from replot of A vs 1/Rb, 37°C): 0.87 ± 0.1 mM | LRb, kinetic constant for rubidium binding to the protonated pump (sodium pump [2]; rat red cells, from replot of B vs 1/Rb, 37°C): 0.066 ± 0.006 mM
